Data on one compound can be found in ChEMBL document CHEMBL1944509, “Methyl-monofluorination of ibuprofen selectively increases its inhibitory activity toward cyclooxygenase-1 leading to enhanced analgesic activity and reduced gastric damage in vivo” (Bioorg Med Chem Lett, 2011).

Test [1] concerns the target T1, Prostaglandin G/H synthase 2 (Homo sapiens) (UniProt P35354).
T1 sequence (whole entry): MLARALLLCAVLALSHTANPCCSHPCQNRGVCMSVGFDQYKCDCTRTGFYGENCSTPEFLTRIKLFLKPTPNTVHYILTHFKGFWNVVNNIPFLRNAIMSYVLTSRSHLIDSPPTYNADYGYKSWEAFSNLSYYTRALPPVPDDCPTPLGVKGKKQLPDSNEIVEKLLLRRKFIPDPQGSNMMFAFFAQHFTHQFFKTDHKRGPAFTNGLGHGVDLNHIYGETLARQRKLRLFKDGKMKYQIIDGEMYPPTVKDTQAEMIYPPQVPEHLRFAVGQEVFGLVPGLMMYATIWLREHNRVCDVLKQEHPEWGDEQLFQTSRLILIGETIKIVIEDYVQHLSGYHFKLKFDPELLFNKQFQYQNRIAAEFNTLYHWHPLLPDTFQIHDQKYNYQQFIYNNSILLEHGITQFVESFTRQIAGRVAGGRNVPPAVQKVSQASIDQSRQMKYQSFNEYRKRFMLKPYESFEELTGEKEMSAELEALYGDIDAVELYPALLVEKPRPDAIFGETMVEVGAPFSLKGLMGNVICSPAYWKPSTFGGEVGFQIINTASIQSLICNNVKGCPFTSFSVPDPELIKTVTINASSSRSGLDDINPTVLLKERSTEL
As to the kind of experiment: Inhibition of human recombinant COX2 up to 1 mM by EIA.

Test [2] has as its target T2, Prostaglandin G/H synthase 1 (Ovis aries) (UniProt P05979).
T2 sequence (whole entry): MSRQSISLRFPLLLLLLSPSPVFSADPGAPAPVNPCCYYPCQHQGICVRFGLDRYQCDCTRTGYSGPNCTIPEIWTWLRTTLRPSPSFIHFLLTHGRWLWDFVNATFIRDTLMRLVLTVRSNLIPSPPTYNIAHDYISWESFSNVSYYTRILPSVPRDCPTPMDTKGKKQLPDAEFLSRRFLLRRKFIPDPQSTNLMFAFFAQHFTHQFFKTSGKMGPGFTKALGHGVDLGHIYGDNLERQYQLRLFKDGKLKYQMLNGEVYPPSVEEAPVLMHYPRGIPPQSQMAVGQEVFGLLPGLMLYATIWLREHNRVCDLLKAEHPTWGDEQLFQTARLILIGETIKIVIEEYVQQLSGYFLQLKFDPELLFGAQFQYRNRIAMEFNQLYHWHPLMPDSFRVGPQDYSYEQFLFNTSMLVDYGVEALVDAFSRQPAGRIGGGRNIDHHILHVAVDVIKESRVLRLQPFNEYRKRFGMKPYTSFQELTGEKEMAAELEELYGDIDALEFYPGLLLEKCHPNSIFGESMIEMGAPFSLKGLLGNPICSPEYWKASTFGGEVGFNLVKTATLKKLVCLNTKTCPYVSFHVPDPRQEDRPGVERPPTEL
As to the kind of experiment: Inhibition of ovine COX1 up to 1 mM by EIA.

Molecules are shown by their SMILES. Calls of active or inactive are those of the source. The rule behind the calls is not given here.

Turning to `CC(C)Cc1ccc([C@@H](CF)C(=O)O)cc1`, the inhibition entry in test [1] and in test [2] was “inactive” in each case.
